Where a name gives a salt, the structure may show the parent alone. Read-outs that look alike come from different tables or passages of the source.
Experiments:
SUV39H2 = SUV39H2 (Homo sapiens (Human), UniProt Q9H5I1); assay: biochemical; type: biochemical; conditions: 3H-SAM 100 nM, H3 Histone Peptide 350 nM, room temperature 3 hours
Experimental: Assay buffer (4 μL) was added into all the wells, including test compound and control wells (except for Sinefungin control wells), using the Multidrop Combi. The plate was centrifuged at 1000 rpm for 1 min. […] SUV39H2 (8 μL, final conc: optimized for each lot of the enzyme based on specific activity) was added by using the Multidrop Combi. The assay plate was centrifuged at 1000 rpm for 1 min. Assay buffer was used as background control, and incubated at room temperature for 3 hours. The reaction was stopped with 20 μL of 2.5 mg/mL Streptavidin SPA beads (final conc. 50 μg/well) in buffer using the Multidrop Combi and centrifuged for 1 min. The plate was loaded into the Trilux-Microbeta counter and a delayed read of 10 hours was made. The radioactive signal was measured at 1 min/well. Sinefungin and the internal standard compound were used as tool compounds to determine assay performance.
• The following calculations were made using the obtained CPM raw data: Software used: XLFit from IDBS.
For each test plate the following results were calculated: • Average, Standard Deviation, and % CV of Background Controls • Average, Standard Deviation, and % CV of Positive Controls • Z′ value of the plate • IC50 values of standard and test compounds (in nM) • R^2 value of fitted concentration response curve • Hill slope coefficient of fitted concentration response curve • Signal to Noise Ratio

A549 = assay: Cell-based assay, anti-proliferative activity (Cell Counting Kit-8, 72 hours); conditions: Homo sapiens, read-out: A549 IC50
Outline: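 Growth read-out after inhibitor treatment of plated cells; potency expressed as IC50.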

[1] = A549 cells, 72 hours exposure, Cell Counting Kit-8

SUV39H2, sequence (Q9H5I1 whole entry): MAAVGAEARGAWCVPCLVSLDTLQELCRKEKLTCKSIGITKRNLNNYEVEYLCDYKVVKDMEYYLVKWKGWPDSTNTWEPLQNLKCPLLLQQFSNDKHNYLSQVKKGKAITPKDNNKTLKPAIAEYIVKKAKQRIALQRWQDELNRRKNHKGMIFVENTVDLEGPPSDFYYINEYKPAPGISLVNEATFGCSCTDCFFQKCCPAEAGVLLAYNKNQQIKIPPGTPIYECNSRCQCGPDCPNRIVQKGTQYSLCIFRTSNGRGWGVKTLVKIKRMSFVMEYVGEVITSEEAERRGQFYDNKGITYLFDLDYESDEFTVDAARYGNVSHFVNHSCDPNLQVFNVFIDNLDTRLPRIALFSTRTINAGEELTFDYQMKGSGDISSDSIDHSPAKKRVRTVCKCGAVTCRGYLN

**Q.** `COc1cc(OC)c(-c2cn3ccc(N[C@H]4CC[C@H](NCc5cccc(C)c5)CC4)cc3n2)cc1Cl` [Example 415, (1r,4r)-N^1-(2-(5-chloro-2,4-dimethoxyphenyl)imidazo[1,2-a]pyridin-7-yl)-N^4-(3-methylbenzyl)cyclohexane-1,4-diamine] was tested. Which IC50 (SUV39H2) did it give?
**A.** 98 nM

**Q.** And the IC50 (A549; [1])?
**A.** 620 nM

**Q.** Which IC50 (SUV39H2) does the source give for `COc1cc(OC)c(-c2cn3ccc(N4CCC(C(=O)NC5CCN(C(=O)OC(C)(C)C)CC5)CC4)cc3n2)cc1Cl` [Example 460, tert-butyl 4-(1-(2-(5-chloro-2,4-dimethoxyphenyl)imidazo[1,2-a]pyridin-7-yl)piperidine-4-carboxamido)piperidine-1-carboxylate] here?
**A.** 20.7 nM

**Q.** And the IC50 (A549; [1])?
**A.** 690 nM

**Q.** Which IC50 (SUV39H2) does the source give for `COc1cc(OC)c(-c2cn3ccc(N4CC[C@H](NCc5ccnc(Cl)c5)C4)cc3n2)cc1Cl` [Example 413, (S)-1-(2-(5-chloro-2,4-dimethoxyphenyl)imidazo[1,2-a]pyridin-7-yl)-N-((2-chloropyridin-4-yl)methyl)pyrrolidin-3-amine dihydrochloride] here?
**A.** 6.35 nM

**Q.** And the IC50 (A549; A549, 72 h)?
**A.** 770 nM

**Q.** With `COc1cc(OCCCN(C)C)c(-c2cn3ccc(N4CC[C@H](N)C4)cc3n2)cc1Cl` [Example 432, (S)-1-(2-(5-chloro-2-(3-(dimethylamino)propoxy)-4-methoxyphenyl)imidazo[1,2-a]pyridin-7-yl)pyrrolidin-3-amine] as the compound, how does the IC50 (SUV39H2) read?
**A.** 31.8 nM

**Q.** What about the IC50 (A549; [1]) of the same compound?
**A.** 710 nM

**Q.** With `COc1cc(OC)c(-c2cn3ccc(N4CC[C@H](NC(C)c5ccncc5)C4)cc3n2)cc1Cl` (stereo partly drawn) [Example 407, (3S)-1-(2-(5-chloro-2,4-dimethoxyphenyl)imidazo[1,2-a]pyridin-7-yl)-N-(1-(pyridin-4-yl)ethyl)pyrrolidin-3-amine dihydrochloride] as the compound, how does the IC50 (SUV39H2) read?
**A.** 7.7 nM

**Q.** And the IC50 (A549; A549, 72 h)?
**A.** 950 nM

**Q.** Which IC50 (SUV39H2) does the source give for `COc1cc(OC)c(-c2cn3ccc(N4CCCN(c5ncccn5)CC4)cc3n2)cc1Cl` [Example 368, 2-(5-chloro-2,4-dimethoxyphenyl)-7-(4-(pyrimidin-2-yl)-1,4-diazepan-1-yl)imidazo[1,2-a]pyridine] here?
**A.** 15.7 nM

**Q.** What about the IC50 (A549; [1]) of the same compound?
**A.** 990 nM

**Q.** With `COc1cc(OC)c(-c2cn3ccc(N[C@H]4CC[C@H](Nc5cncnc5)CC4)cc3n2)cc1Cl` [Example 337, (1r,4r)-N^1-(2-(5-chloro-2,4-dimethoxyphenyl)imidazo[1,2-a]pyridin-7-yl)-N^4-(pyrimidin-5-yl)cyclohexane-1,4-diamine] as the compound, how does the IC50 (SUV39H2) read?
**A.** 79.9 nM

**Q.** And the IC50 (A549; [1])?
**A.** 830 nM

**Q.** Which results are given for `COc1cc(OC)c(-c2cn3ccc(N4CCN(c5ccnc(NCCCO)n5)CC4)cc3n2)cc1Cl` [Example 395, 3-((4-(4-(2-(5-chloro-2,4-dimethoxyphenyl)imidazo[1,2-a]pyridine-7-yl)piperazin-1-yl)pyrimidin-2-yl)amino)propan-1-ol]?
**A.** IC50 (SUV39H2): 14 nM; IC50 (A549; [1]): 770 nM

**Q.** What does the source list for `COc1cc(OC)c(-c2cn3ccc(N[C@H]4CC[C@@H](NCc5ccc(C#N)cc5)CC4)cc3n2)cc1Cl` [Example 403, 4-((((1s,4s)-4-((2-(5-chloro-2,4-dimethoxyphenyl)imidazo[1,2-a]pyridine-7-yl)amino)cyclohexyl)amino)methyl) benzonitrile]?
**A.** IC50 (SUV39H2): 15.1 nM; IC50 (A549; [1]): 750 nM

**Q.** How did the IC50 (SUV39H2) turn out when `COc1cc(OC)c(-c2cn3ccc(N4CCN(c5nccc(N)c5F)CC4)cc3n2)cc1Cl` [Example 365, 2-(4-(2-(5-chloro-2,4-dimethoxyphenyl)imidazo[1,2-a]pyridin-7-yl)piperazin-1-yl)-3-fluoropyridin-4-amine formate] was run?
**A.** 29.7 nM

**Q.** What about the IC50 (A549; A549, 72 h) of the same compound?
**A.** 630 nM

**Q.** With `COc1cc(OC)c(-c2cn3ccc(N[C@H]4CC[C@@H](NCc5ccccc5)CC4)cc3n2)cc1Cl` [Example 325, cis-N^1-benzyl-N^4-(2-(5-chloro-2,4-dimethoxyphenyl)imidazo[1,2-a]pyridin-7-yl)cyclohexane-1,4-diamine] as the compound, how does the IC50 (SUV39H2) read?
**A.** 23.4 nM

**Q.** What about the IC50 (A549; [1]) of the same compound?
**A.** 800 nM

**Q.** For `COc1cc(OC)c(-c2cn3ccc(N4CCN(c5cncnc5)CC4)cc3n2)cc1Cl` [Example 317, 2-(5-chloro-2,4-dimethoxyphenyl)-7-(4-(pyrimidin-5-yl)piperazin-1-yl)imidazo[1,2-a]pyridine], which IC50 (SUV39H2) is on record?
**A.** 11.6 nM

**Q.** And the IC50 (A549; [1])?
**A.** 650 nM

**Q.** What does the source list for `COc1cc(OC)c(-c2cn3ccc(N[C@H]4CC[C@@H](NCC5CCN(C(=O)OC(C)(C)C)CC5)CC4)cc3n2)cc1Cl` [Example 423, tert-butyl 4-(((cis-4-((2-(5-chloro-2,4-dimethoxyphenyl)imidazo[1,2-a]pyridin-7-yl)amino)cyclohexyl)amino)methyl)piperidine-1-carboxylate]?
**A.** IC50 (SUV39H2): 26.9 nM; IC50 (A549; [1]): 590 nM

**Q.** `COc1cc(OC)c(-c2cn3ccc(N4CCN(c5nccc(N6CCC(N)CC6)n5)CC4)cc3n2)cc1Cl` [Example 437, 1-(2-(4-(2-(5-chloro-2,4-dimethoxyphenyl)imidazo[1,2-a]pyridin-7-yl)piperazin-1-yl)pyrimidin-4-yl)piperidin-4-amine] was tested. Which IC50 (SUV39H2) did it give?
**A.** 15.9 nM

**Q.** What about the IC50 (A549; [1]) of the same compound?
**A.** 740 nM

**Q.** Which IC50 (SUV39H2) does the source give for `COc1cc(OC)c(-c2cn3ccc(N4CCN(c5cnc(N6CCOCC6)nc5)CC4)cc3n2)cc1Cl` [Example 335, 4-(5-(4-(2-(5-chloro-2,4-dimethoxyphenyl)imidazo[1,2-a]pyridin-7-yl)piperazin-1-yl)pyrimidin-2-yl)morpholine] here?
**A.** 68.5 nM

**Q.** And the IC50 (A549; [1])?
**A.** 690 nM

**Q.** What does the source list for `COc1cc(OC)c(-c2cn3ccc(N[C@H]4C[C@H]5CC[C@@H](C4)N5CC4CCN(C(=O)OC(C)(C)C)CC4)cc3n2)cc1Cl` [Example 447, tert-butyl 4-(((1R,3r,5S)-3-((2-(5-chloro-2,4-dimethoxyphenyl)imidazo[1,2-a]pyridin-7-yl)amino)-8-azabicyclo[3.2.1]octan-8-yl)methyl)piperidine-1-carboxylate]?
**A.** IC50 (SUV39H2): 85.2 nM; IC50 (A549; [1]): 440 nM

**Q.** Which results are given for `COc1cc(OC)c(-c2cn3ccc(N4CCN(c5ccnc(N6CCNCC6)n5)CC4)cc3n2)cc1Cl` [Example 341, 2-(5-chloro-2,4-dimethoxyphenyl)-7-(4-(2-(piperazin-1-yl)pyrimidin-4-yl)piperazin-1-yl)imidazo[1,2-a]pyridine]?
**A.** IC50 (SUV39H2): 23.4 nM; IC50 (A549; A549, 72 h): 740 nM

**Q.** With `COc1cc(OC)c(-c2cn3ccc(N[C@H]4CC[C@H](NCc5cccc(C#N)c5)CC4)cc3n2)cc1Cl` [Example 397, 3-((((1r,4r)-4-((2-(5-chloro-2,4-dimethoxyphenyl)imidazo[1,2-a]pyridin-7-yl)amino)cyclohexyl)amino)methyl)benzonitrile] as the compound, how does the IC50 (SUV39H2) read?
**A.** 64.6 nM

**Q.** What about the IC50 (A549; [1]) of the same compound?
**A.** 700 nM

**Q.** With `COc1cc(OC)c(-c2cn3ccc(N4CC[C@H](NCc5ccc(NC(=O)OC(C)(C)C)cc5)C4)cc3n2)cc1Cl` [Example 386, (S)-tert-butyl (4-(((1-(2-(5-chloro-2,4-dimethoxyphenyl)imidazo[1,2-a]pyridin-7-yl)pyrrolidin-3-yl)amino)methyl)phenyl)carbamate] as the compound, how does the IC50 (SUV39H2) read?
**A.** 24.8 nM

**Q.** And the IC50 (A549; [1])?
**A.** 730 nM

**Q.** Which results are given for `COc1cc(OC)c(-c2cn3cc(Br)c(N4CC[C@H](NCc5ccncc5)C4)cc3n2)cc1Cl` [Example 438, (S)-1-(6-bromo-2-(5-chloro-2,4-dimethoxyphenyl)imidazo[1,2-a]pyridin-7-yl)-N-(pyridin-4-ylmethyl)pyrrolidin-3-amine]?
**A.** IC50 (SUV39H2): 23.1 nM; IC50 (A549; [1]): 2400 nM

**Q.** `COc1cc(OC)c(-c2cn3ccc(N4CCN(c5cc(C)ccn5)CC4)cc3n2)cc1Cl` [Example 327, 2-(5-chloro-2,4-dimethoxyphenyl)-7-(4-(4-methylpyridin-2-yl)piperazin-1-yl)imidazo[1,2-a]pyridine] was tested. Which IC50 (SUV39H2) did it give?
**A.** 46.7 nM

**Q.** What about the IC50 (A549; A549, 72 h) of the same compound?
**A.** 870 nM
